# pIC50: −log10 of the molar value. “And” between values parts separate entries of the source, which are not always exact repeats. Equal entries are not always repeated. Where two headings read alike, the source gives them in different places. Marks after values point to notes of the source that are not given here.
# Legend:
# CCRF-CEM/VM1 = experiment: cells; type: cell-based, human
# Experimental: (§1) The drug-resistant cell lines were continuously cultured in the presence of the selecting agent, AD, DX, VBL or VM to maintain the drug resistant phenotypes. […] All cells were cultured in RPMI 1640-10% FBS at 37° C. 5% CO2 (see below).
# (§2) The cells were cultured at an initial density of 5×10^4 cells/mL. They were maintained in a 5% CO2-humidified atmosphere at 37° C. in RPMI-1640 medium (GIBCO-BRL, Gaithersburg, Md.) containing penicillin (100 U/mL), streptomycin ([…]) (GIBCO-BRL) and 10% heat inactivate fetal bovine serum. Culture for cell suspension (such as for CCRF-CEM, P388 and sublines), were performed by the XTT-microculture tetrazonium method (Scudiero, D. A. et al., Cancer Res. 1988, 48, 4827-4833) in duplicate in 96-well microtiter plates.
# (§3) 2′,3′-Bis(methoxy-4-nitro-5-sufophenyl)-5-[(phenylamino)carbonyl]2H-tetrazolium hyudroxide (XTT) was prepared at 1 mg/mL in prewarmed (37° C.) medium without serum. Phenazine methosulfate (PMS) and fresh XTT were mixed together to obtain 0.025 mM PMS-XTT solution (25 μL of the stock 5 mM PMS was added per 5 mL of 1 mg/mL XTT). Following a 72 h incubation, 50 μL of the assay aliquots were added to each well of the cell culture. After incubation at 37° C. for 4 h, absorbance at 450 nm and 630 nm was measured with a microplate reader (EL340, Bio-Tek Instruments, Inc., Winooski, Vt.).
# CCRF-CEM/VBL100 = experiment: cells; type: cell-based, human
# Experimental: as §1, §2, §3
# DC-3F/ADII = experiment: SRB cytotoxicity, DC-3F/ADII; type: cell-based, hamster; settings: Table 3; read-out: IC50
# Experimental: (§4) The DC-3F hamster lung fibroblast cell line and its actinomycin D-selected sublines (DC-3F/ADII and DC-3F/ADX) were obtained from the Memorial Sloan-Kettering Cancer Center (MSKCC).
# as §1
# (§5) The cytotoxicity of the drug toward the monolayer cell cultures (such as DC-3F, MCF-7, SK-N-As and sublines) was determined in 96-well microtiter plates by the SRB method as described by Skehan and co-workers (Skehan, P., et al., J. Natl. Cancer Inst. 1990, 82, 1107-1112) for measuring the cellular protein content. Cultures were fixed with trichloroacetic acid and then stained for 30 min with 0.4% suforhodamine B dissolved in 1% acetic acid. Unbound dye was removed by acetic acid washes, and the protein-bound dye was extracted with an unbuffered Tris base (tris(hydroxy-methyl)aminomethane) for determination of absorbance at 570 nm in a 96-well microtiter plate reader. The experiments were carried out in duplicate. Each run entailed six to seven concentrations of the tested drugs. Data were analyzed with the median-effect plot (Chou, T.-C. & Talalay, P. T. (1984) Adv. Enzyme Regul. 22, 27-55) using a previously described computer program (Chou, J., & Chou T.-C. 1987, Dose-effect analysis with microcomputers: Quantitation of ED50, synergism, antagonism, low-dose risk, reception-ligand binding and enzyme kinetics, IBM-PC software and manual, Biosoft, Cambridge, U.K.).
# (§6) Concerning Table 3, experiments were carried out using the cell lines DC-3F (parent hamster lung cells), DC-3F/ADII (moderate multidrug-resistant (MDR) cells) and DC-3F/ADX (very strong MDR cells).
# DC-3F/ADX = experiment: cells; type: cell-based, hamster; settings: Table 3; read-out: IC50
# Experimental: as §4, §1, §5, §6
# [1] = system: DC-3F hamster lung fibroblast cell line; experiment: SRB cytotoxicity, DC-3F; type: cell-based; settings: Table 3; read-out: IC50
# Experimental: as §4, §1, §5
# [2] = system: CCRF-CEM human T-cell acute lymphoblastic leukemia cell line; experiment: XTT cytotoxicity (cell growth inhibition), CCRF-CEM; settings: for times less active than corresponding epothilone A counterpart (cytotoxicity): see Table 1
# Experimental: as §4, §1, §2, §3
# [3] = Table 2, CCR-CEM/VM-1, read-out: IC50
# [4] = Table 2A, Topo II gene mutated cell line, read-out: IC50 (C)
# [5] = Table 6, single determinations, read-out: IC50
# [6] = Table 2, CCRF-CEM/VLB, read-out: IC50
# [7] = Table 2A, MDR cell line, read-out: IC50 (B)
# [8] = Table 7, CEM/VBL, read-out: IC50
# [9] = read-out: IC50 (A), Table 2A, parent cell line
# [10] = Table 6, read-out: IC50 (mean ± of determinations, in parentheses)
Molecule,pIC50 (CCRF-CEM/VM1; [3]),pIC50 (CCRF-CEM/VM1; [5]),pIC50 (CCRF-CEM/VBL100; [6]),pIC50 (CCRF-CEM/VBL100; [5]),pIC50 (CCRF-CEM/VBL100; [8]),pIC50 (DC-3F/ADII),pIC50 (DC-3F/ADX),pIC50 [1],pIC50 ([2]; Table 2),"pIC50 ([2]; Table 6, single determinations)","pIC50 ([2]; Table 7, CEM)",also measured
CC(=Cc1csc(C)n1)C1CC=CCCCC(C)C(O)C(C)C(O)C(C)(C)C(O)CC(=O)O1 (stereo not shown) [#2],4.36,4.36,5.20,5.20,5.20,5.34,5.32,4.99,4.85,4.85,4.85,"(C)/(A) ratio (fold resistance >1, collateral sensitivity <1) (CCRF-CEM/VM1; Table 2A): (309)^a; pIC50 (CCRF-CEM/VM1; [4]): 4.36; (B)/(A) ratio (fold resistance >1, collateral sensitivity <1) (CCRF-CEM/VBL100; Table 2A): (0.44)^b; pIC50 (CCRF-CEM/VBL100; [7]): 5.20; pIC50 [2, 9]: 4.85"
CC(=Cc1csc(C)n1)C1CC2OC2CC=CCCCCC(C)(C)CCC(=O)O1 (stereo not shown) [#3],4.94,4.94,4.65,4.65,4.65,5.52,6.01,5.02,3.57,3.57,3.57,"(C)/(A) ratio (fold resistance >1, collateral sensitivity <1) (CCRF-CEM/VM1; Table 2A): (0.043)^b; pIC50 (CCRF-CEM/VM1; [4]): 4.94; (B)/(A) ratio (fold resistance >1, collateral sensitivity <1) (CCRF-CEM/VBL100; Table 2A): (0.082)^b; pIC50 (CCRF-CEM/VBL100; [7]): 4.65; pIC50 [2, 9]: 3.57"
CC1=CCC(C(C)=Cc2csc(C)n2)OC(=O)CC(O)C(C)(C)C(=O)C(C)C(O)C(C)CCC1 (stereo not shown) [#11],,7.03,,6.58,6.58,,,,,7.05,7.05,pIC50 (CCRF-CEM/VBL100; read-out: IC50): 6.58
CC(=Cc1csc(C)n1)C(O)CC=CCCCC(C)C(O)C(C)C(=O)C(C)(C)C(O)CC(=O)O (stereo not shown) [#12],,< 5.30,,< 5.30,< 5.30,,,,,6.10,6.10,
C=CC[C@H](OC(=O)C[C@H](O)C(C)(C)C(=O)[C@H](C)[C@@H](O)[C@@H](C)CCCC(=C)C)/C(C)=C/c1csc(C)n1 [#13],,4.84,,5.25,5.25,,,,,4.94,4.94,
"C/C(=C\c1csc(C)n1)[C@@H]1C/C=C\CCCC[C@H](O)[C@@H](C)C(=O)C(C)(C)[C@@H](O)CC(=O)O1 [#14, Desmethyldesoxyepothilone A]",,5.20,,5.24,5.24,,,,,5.27,5.27,"pIC50 (CCRF-CEM/VM1; Table 1, XTT, read-out: IC50): 5.20; pIC50 (CCRF-CEM/VBL100; Table 1, XTT, read-out: IC50): 5.24; pIC50 ([2]; Table 1, XTT): 5.30; times less active than corresponding epothilone A counterpart (cytotoxicity) [2]: approximately 200 times"
"C/C(=C\c1csc(C)n1)C1CC2OC2CCCCC(O)C(C)C(=O)C(C)(C)C(O)CC(=O)O1 (stereo not shown) [#15, 8-Desmethylepothilone A]",,6.12,,5.61,5.61,,,,,6.36,6.36,"pIC50 (CCRF-CEM/VM1; Table 1, XTT, read-out: IC50): 6.12; pIC50 (CCRF-CEM/VBL100; Table 1, XTT, read-out: IC50): 5.61; pIC50 [2]: 6.36; Rel. Value (potency relative to Epo B) ([2]; CCRF-CEM leukemic cells): 1/1257; pIC50 ([2]; Table 1, XTT): 6.36; times less active than corresponding epothilone A counterpart (cytotoxicity) [2]: approximately 200 times"
C/C(=C\c1csc(C)n1)[C@@H]1C[C@H]2O[C@H]2CCCC[C@H](O)[C@@H](C)C(=O)C(C)(C)[C@@H](O)CC(=O)O1 [#16],,6.01,,4.78,4.78,,,,,5.13,5.13,
"C/C(=C\c1csc(C)n1)[C@@H]1C[C@@H]2O[C@@H]2CCC[C@H](C)[C@H](O)[C@@H](C)C(=O)C(C)(C)[C@@H](O)CC(=O)O1 [EPOTHILONE A NATURAL, epothilone A]",8.47,8.22 and 8.20,7.57,7.68 and 7.72,,7.91,7.27,8.43,8.46,8.62 and 8.51,,"relative resistance (fold) vs parent cell line (CCRF-CEM/VM1; Table 6): (2.3X); pIC50 (CCRF-CEM/VM1; [10]): 8.21; relative resistance (fold) vs parent cell line (CCRF-CEM/VBL100; Table 6): (7.4X); pIC50 (CCRF-CEM/VBL100; [10]): 7.70; pIC50 ([2]; read-out: IC50 (mean ± of determinations, in parentheses), Table 6): 8.57"
"C/C(=C\c1csc(C)n1)[C@@H]1C[C@@H]2O[C@@H]2CCC[C@H](C)[C@H](O)[C@@H](C)C(=O)C(C)(C)[C@@H](O)CC(=O)O1 [EPOTHILONE A SYNTHETIC, epothilone A]",8.47,,7.69,,,7.88,7.15,8.45,8.54,,,"pIC50 (CCRF-CEM/VBL100; Table 5, CCRF-CEM/VLB, single determinations, read-out: IC50): 7.82; pIC50 ([2]; Table 5, single determinations): 8.68"
epothilone B,,8.92,,8.68,,,,,,9.48,,relative resistance (fold) vs parent cell line (CCRF-CEM/VM1; Table 6): (3.6X); relative resistance (fold) vs parent cell line (CCRF-CEM/VBL100; Table 6): (6.1X)

# Source: patent publication US6603023B2 (priority 1996, dated 2003)
